Values quoted from earlier work in patent US20140004186A1, “COMPOSITIONS COMPRISING A FATTY ACID OIL MIXTURE COMPRISING EPA AND DHA IN FREE ACID FORM, A SURFACTANT, AND A STATIN” (Pronova Biopharma Norge AS, priority 2010, published 2014).

What was measured:
[1] = Table 7, other surfactants

Structure (SMILES)	HBL Value [1]	oral bioavailability
CC(O)CO.CCCCCCCCCCCCCCCCCC(=O)O [Propylene glycol monostearate]	3.4	–
CC(C)c1nc(N(C)S(C)(=O)=O)nc(-c2ccc(F)cc2)c1/C=C/[C@@H](O)C[C@@H](O)CC(=O)O [rosuvastatin]	–	20%
CC[C@H](C)C(=O)O[C@H]1C[C@H](O)C=C2C=C[C@H](C)[C@H](CC[C@@H](O)C[C@@H](O)CC(=O)O)[C@H]21 [pravastatin]	–	18%
